Laboratory results as given in PubChem BioAssay (NCI).
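1) Cells in 96-well plates. 2) Compound, 48 h, 5 concentrations. 3) Linear interpolation between surrounding doses. 4) Unreached endpoint = highest concentration. TGI: total growth inhibition.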

system: NCI-H226 lung; assay: NCI-60 cell line screen, 48 h

SMILES	TGI [µM]
COc1ccc(CCNC2=CC(=O)c3ncccc3C2=O)cc1OC	3.19
CC1(C)OCC2OC3(c4nc(C#N)c(N)o4)OC(C)(C)OC3C2O1 (stereo not drawn)	> 100
CC12CCC(C(=O)OC1=O)C2(C)C (stereo not drawn)	> 100
COn1cc(C=O)c2ccccc21	> 84.9
CC1=CC(C2/C(=N/O)C=C(C)CC2(C)C)C(O)C(C)(C)C1 (stereo not drawn)	33.7
C=CCNC1=C2C[C@@H](C)C[C@@H](OC)[C@@H](OC(=O)CCCN)[C@H](C)/C=C(\C)[C@@H](OC(N)=O)[C@H](OC)/C=C\C=C(/C)C(=O)NC(=CC1=O)C2=O	36.3
c1cc(-c2ncc(-c3ccc4c(c3)CCCO4)o2)ccn1	> 100
O=C1NC(=O)C(c2c[nH]c3cc(Br)ccc23)=C1c1cn(C(c2ccccc2)(c2ccccc2)c2ccccc2)cn1	19.3
CC(C)=CCS(=O)c1ccccc1NC1=CC(=O)CC(C)(C)C1 (stereo not drawn)	> 100
COC(=O)C1=C(C)NC(C)=C(C(=O)OC)C1c1ccc(/[N+]([O-])=C/c2ccccc2)cc1	> 100
Cc1cc(C)cc(C(=N)c2ccccc2Cc2cccc3ccccc23)c1	29.3
COC1=C(Br)[C@H](O)[C@@]2(C=C1Br)CC(C(=O)NCCCCCN=C(N)N)=NO2	> 10
CC1(C#N)CC(C)(C)C(/C=C2/CC(C)(C)C(/C=C3/OC(=N)CC3(C)C)=N2)=N1 (stereo not drawn)	> 100
C#CCn1ncc2c(SCc3ccccc3)ncnc21	> 100
CCOC(=O)CC1c2ccc(O)cc2OC(=O)C1c1ccc([N+](=O)[O-])cc1 (stereo not drawn)	58.4
CCN1c2nc3ccccc3nc2N(CC)c2nc3ccccc3nc21	> 100
CCN(CC)/C(Cl)=C(Cl)\C(=C1\Nc2ccc(OC)cc21)[N+](=O)[O-]	69.2

system: NCI-H23 lung; assay: NCI-60 cell line screen, 48 h

SMILES	TGI [µM]
COc1ccc(CCNC2=CC(=O)c3ncccc3C2=O)cc1OC	2.58
CC1(C)OCC2OC3(c4nc(C#N)c(N)o4)OC(C)(C)OC3C2O1 (stereo not drawn)	> 100
CC12CCC(C(=O)OC1=O)C2(C)C (stereo not drawn)	> 100
COn1cc(C=O)c2ccccc21	> 100
CC1=CC(C2/C(=N/O)C=C(C)CC2(C)C)C(O)C(C)(C)C1 (stereo not drawn)	32.8
C=CCNC1=C2C[C@@H](C)C[C@@H](OC)[C@@H](OC(=O)CCCN)[C@H](C)/C=C(\C)[C@@H](OC(N)=O)[C@H](OC)/C=C\C=C(/C)C(=O)NC(=CC1=O)C2=O	29.6
c1cc(-c2ncc(-c3ccc4c(c3)CCCO4)o2)ccn1	52.2
O=C1NC(=O)C(c2c[nH]c3cc(Br)ccc23)=C1c1cn(C(c2ccccc2)(c2ccccc2)c2ccccc2)cn1	25.3
CC(C)=CCS(=O)c1ccccc1NC1=CC(=O)CC(C)(C)C1 (stereo not drawn)	> 100
COC(=O)C1=C(C)NC(C)=C(C(=O)OC)C1c1ccc(/[N+]([O-])=C/c2ccccc2)cc1	> 100
Cc1cc(C)cc(C(=N)c2ccccc2Cc2cccc3ccccc23)c1	34.1
COC1=C(Br)[C@H](O)[C@@]2(C=C1Br)CC(C(=O)NCCCCCN=C(N)N)=NO2	> 10
CC1(C#N)CC(C)(C)C(/C=C2/CC(C)(C)C(/C=C3/OC(=N)CC3(C)C)=N2)=N1 (stereo not drawn)	60.6
C#CCn1ncc2c(SCc3ccccc3)ncnc21	> 100
CCOC(=O)CC1c2ccc(O)cc2OC(=O)C1c1ccc([N+](=O)[O-])cc1 (stereo not drawn)	96.7
CCN1c2nc3ccccc3nc2N(CC)c2nc3ccccc3nc21	> 100
CCN(CC)/C(Cl)=C(Cl)\C(=C1\Nc2ccc(OC)cc21)[N+](=O)[O-]	> 100

system: OVCAR-3 ovarian; assay: NCI-60 cell line screen, 48 h

SMILES	TGI [µM]
COc1ccc(CCNC2=CC(=O)c3ncccc3C2=O)cc1OC	5.12
CC1(C)OCC2OC3(c4nc(C#N)c(N)o4)OC(C)(C)OC3C2O1 (stereo not drawn)	> 100
CC12CCC(C(=O)OC1=O)C2(C)C (stereo not drawn)	> 100
COn1cc(C=O)c2ccccc21	> 100
CC1=CC(C2/C(=N/O)C=C(C)CC2(C)C)C(O)C(C)(C)C1 (stereo not drawn)	23.3
C=CCNC1=C2C[C@@H](C)C[C@@H](OC)[C@@H](OC(=O)CCCN)[C@H](C)/C=C(\C)[C@@H](OC(N)=O)[C@H](OC)/C=C\C=C(/C)C(=O)NC(=CC1=O)C2=O	32.8
c1cc(-c2ncc(-c3ccc4c(c3)CCCO4)o2)ccn1	29.9
O=C1NC(=O)C(c2c[nH]c3cc(Br)ccc23)=C1c1cn(C(c2ccccc2)(c2ccccc2)c2ccccc2)cn1	> 100
CC(C)=CCS(=O)c1ccccc1NC1=CC(=O)CC(C)(C)C1 (stereo not drawn)	> 100
COC(=O)C1=C(C)NC(C)=C(C(=O)OC)C1c1ccc(/[N+]([O-])=C/c2ccccc2)cc1	34.4
Cc1cc(C)cc(C(=N)c2ccccc2Cc2cccc3ccccc23)c1	32.9
COC1=C(Br)[C@H](O)[C@@]2(C=C1Br)CC(C(=O)NCCCCCN=C(N)N)=NO2	> 10
CC1(C#N)CC(C)(C)C(/C=C2/CC(C)(C)C(/C=C3/OC(=N)CC3(C)C)=N2)=N1 (stereo not drawn)	45.8
C#CCn1ncc2c(SCc3ccccc3)ncnc21	> 100
CCOC(=O)CC1c2ccc(O)cc2OC(=O)C1c1ccc([N+](=O)[O-])cc1 (stereo not drawn)	> 100
CCN1c2nc3ccccc3nc2N(CC)c2nc3ccccc3nc21	> 100
CCN(CC)/C(Cl)=C(Cl)\C(=C1\Nc2ccc(OC)cc21)[N+](=O)[O-]	57.3

system: OVCAR-5 ovarian; assay: NCI-60 cell line screen, 48 h

SMILES	TGI [µM]
COc1ccc(CCNC2=CC(=O)c3ncccc3C2=O)cc1OC	6.63
CC1(C)OCC2OC3(c4nc(C#N)c(N)o4)OC(C)(C)OC3C2O1 (stereo not drawn)	> 100
CC12CCC(C(=O)OC1=O)C2(C)C (stereo not drawn)	> 100
COn1cc(C=O)c2ccccc21	> 100
CC1=CC(C2/C(=N/O)C=C(C)CC2(C)C)C(O)C(C)(C)C1 (stereo not drawn)	34.8
C=CCNC1=C2C[C@@H](C)C[C@@H](OC)[C@@H](OC(=O)CCCN)[C@H](C)/C=C(\C)[C@@H](OC(N)=O)[C@H](OC)/C=C\C=C(/C)C(=O)NC(=CC1=O)C2=O	31.8
c1cc(-c2ncc(-c3ccc4c(c3)CCCO4)o2)ccn1	> 100
O=C1NC(=O)C(c2c[nH]c3cc(Br)ccc23)=C1c1cn(C(c2ccccc2)(c2ccccc2)c2ccccc2)cn1	39
CC(C)=CCS(=O)c1ccccc1NC1=CC(=O)CC(C)(C)C1 (stereo not drawn)	> 100
COC(=O)C1=C(C)NC(C)=C(C(=O)OC)C1c1ccc(/[N+]([O-])=C/c2ccccc2)cc1	> 100
Cc1cc(C)cc(C(=N)c2ccccc2Cc2cccc3ccccc23)c1	53.5
COC1=C(Br)[C@H](O)[C@@]2(C=C1Br)CC(C(=O)NCCCCCN=C(N)N)=NO2	> 10
CC1(C#N)CC(C)(C)C(/C=C2/CC(C)(C)C(/C=C3/OC(=N)CC3(C)C)=N2)=N1 (stereo not drawn)	> 100
C#CCn1ncc2c(SCc3ccccc3)ncnc21	> 100
CCOC(=O)CC1c2ccc(O)cc2OC(=O)C1c1ccc([N+](=O)[O-])cc1 (stereo not drawn)	> 100
CCN1c2nc3ccccc3nc2N(CC)c2nc3ccccc3nc21	> 100
CCN(CC)/C(Cl)=C(Cl)\C(=C1\Nc2ccc(OC)cc21)[N+](=O)[O-]	> 100
